Assay results: patent publication US11267800B2, “Cyclohexyl acid triazole azines as LPA antagonists” (BRISTOL-MYERS SQUIBB COMPANY, priority 2017, dated 2022)

Target: T1, human LPA1 (Homo sapiens, UniProt Q92633)
T1 construct: expressed in transfected cells; host or cells: Chinese hamster ovary (CHO) cells
Assay: LPA1 functional antagonist assay (calcium flux)
Type: cell-based
Conditions: CHO cells overexpressing human LPA1; inhibition of calcium flux induced by 10 nM LPA; read-out: hLPA1 IC50
Procedure: The effectiveness of compounds of the present invention as LPA1 inhibitors can be determined in an LPA1 functional antagonist assay as follows:
Chinese hamster ovary cells overexpressing human LPA1 were plated overnight (15,000 cells/well) in poly-D-lysine coated 384-well microplates (Greiner bio-one, Cat #781946) in DMEM/F12 medium (Gibco, Cat #11039). Following overnight culture, cells were loaded with calcium indicator dye (AAT Bioquest Inc, Cat #34601) for 30 minutes at 37° C. The cells were then equilibrated to room temperature for 30 minutes before the assay. Test compounds solubilized in DMSO were transferred to 384 well non-binding surface plates (Corning, Cat #3575) using the Labcyte Echo acoustic dispense and diluted with assay buffer [1×HBSS with calcium/magnesium (Gibco Cat #14025-092), 20 mM HEPES (Gibco Cat #15630-080) and 0.1% fatty acid free BSA (Sigma Cat #A9205)] to a final concentration of 0.5% DMSO. Diluted compounds were added to the cells by FDSS6000 (Hamamatsu) at final concentrations ranging from 0.08 nM to 5 μM. and were then incubated for 20 min at room temperature at which time LPA (Avanti Polar Lipids Cat #857130C) was added at final concentrations of 10 nM to stimulate the cells. The compound IC50 value was defined as the concentration of test compound which inhibited 50% of the calcium flux induced by LPA alone. IC50 values were determined by fitting data to a 4-parameter logistic equation (GraphPad Prism, San Diego Calif.).

T1 sequence (Q92633 whole entry): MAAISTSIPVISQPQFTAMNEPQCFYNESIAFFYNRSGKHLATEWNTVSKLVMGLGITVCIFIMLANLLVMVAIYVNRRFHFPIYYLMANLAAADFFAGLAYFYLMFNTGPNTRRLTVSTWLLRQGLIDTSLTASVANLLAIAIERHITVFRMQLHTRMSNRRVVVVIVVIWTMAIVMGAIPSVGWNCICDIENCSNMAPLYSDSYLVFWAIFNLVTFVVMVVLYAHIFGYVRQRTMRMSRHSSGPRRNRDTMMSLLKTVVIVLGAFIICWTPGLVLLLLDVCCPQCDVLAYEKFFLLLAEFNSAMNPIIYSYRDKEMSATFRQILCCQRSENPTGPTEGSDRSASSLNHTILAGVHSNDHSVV

Row | Structure (SMILES) | IC50
1 | CCC(C)c1ncnc(NCc2c(-c3ccc(O[C@H]4CCC[C@H](C(=O)O)C4)c(C)n3)nnn2C)n1 (mixture of isomers) [Example 197, (1S,3S)-3-((6-(5-(((4-(sec-Butyl)-1,3,5-triazin-2-yl)amino)methyl)-1-methyl-1H-1,2,3-triazol-4-yl)-2-methylpyridin-3-yl)oxy)cyclohexane-1-carboxylic acid] | 94 nM
2 | CCC(C)c1nc(O)nc(NCc2c(-c3ccc(O[C@H]4CCC[C@H](C(=O)O)C4)c(C)n3)nnn2C)n1 (mixture of isomers) [Example 198, (1S,3S)-3-((6-(5-(((4-(sec-Butyl)-6-hydroxy-1,3,5-triazin-2-yl)amino)methyl)-1-methyl-1H-1,2,3-triazol-4-yl)-2-methylpyridin-3-yl)oxy) cyclohexane-1-carboxylic acid] | 130 nM
3 | Cc1nc(-c2nnn(C)c2COc2nccc(OC3CC3)n2)ccc1O[C@H]1CCCC(C(=O)O)C1 (mixture of isomers) [Example 251, (3S)-3-((6-(5-(((4-cyclopropoxypyrimidin-2-yl)oxy)methyl)-1-methyl-1H-1,2,3-triazol-4-yl)-2-methylpyridin-3-yl)oxy)cyclohexane-1-carboxylic acid] | 41 nM
4 | Cc1nc(-c2nnn(C)c2COc2nccc(OC(C)C)n2)ccc1O[C@H]1CCC[C@@H](C(=O)O)C1 (single isomer, unassigned) [Example 249] | 67 nM
5 | Cc1nc(-c2nnn(C)c2COc2nccc(OC(C)C)n2)ccc1O[C@H]1CCC[C@H](C(=O)O)C1 (single isomer, unassigned) [Example 250] | 41 nM
6 | Cc1nc(-c2nnn(C)c2CNc2cc(-c3ccccc3)ccn2)ccc1O[C@H]1CCC[C@H](C(=O)O)C1 (stereo in doubt) [Example 2, (1S,3S)-3-((2-Methyl-6-(1-methyl-5-(((4-phenylpyridin-2-yl)amino)methyl)-1H-1,2,3-triazol-4-yl)pyridin-3-yl)oxy)cyclohexanecarboxylic acid] | 32 nM
7 | Cc1nc(-c2nnn(C)c2CNc2nccc(C(C)(C)C)n2)ccc1O[C@H]1CCC[C@H](C(=O)O)C1 [Example 1, (1S,3S)-3-((6-(5-(((4-(tert-Butyl)pyrimidin-2-yl)amino)methyl)-1-methyl-1H-1,2,3-triazol-4-yl)-2-methylpyridin-3-yl)oxy)cyclohexanecarboxylic acid] | 26 nM
8 | Cc1nc(-c2nnn(C)c2CNc2ncnc(-c3ccccc3)n2)ccc1O[C@H]1CCC[C@H](C(=O)O)C1 [Example 3, (1S,3S)-3-((2-Methyl-6-(1-methyl-5-(((4-phenyl-1,3,5-triazin-2-yl)amino)methyl)-1H-1,2,3-triazol-4-yl)pyridin-3-yl)oxy)cyclohexanecarboxylic acid] | 120 nM
9 | COc1nc(NCc2c(-c3ccc(O[C@H]4CCC[C@H](C(=O)O)C4)c(C)n3)nnn2C)nc(-c2ccccc2)n1 [Example 4, (1S,3S)-3-((6-(5-(((4-Methoxy-6-phenyl-1,3,5-triazin-2-yl)amino)methyl)-1-methyl-1H-1,2,3-triazol-4-yl)-2-methylpyridin-3-yl)oxy)cyclohexanecarboxylic acid] | 153 nM
10 | Cn1nnc(-c2cnc(O[C@H]3CCC[C@H](C(=O)O)C3)cn2)c1CNc1nccc(C(C)(C)C)n1 [Example 5, (1S,3S)-3-((5-(5-(((4-(tert-butyl)pyrimidin-2-yl)amino)methyl)-1-methyl-1H-1,2,3-triazol-4-yl)pyrazin-2-yl)oxy)cyclohexane-1-carboxylic acid] | 361 nM
11 | CCCc1ccnc(NCc2c(-c3ccc(O[C@H]4CCC[C@H](C(=O)O)C4)c(C)n3)nnn2C)n1 [Example 7] | 8 nM
12 | Cc1nc(-c2nnn(C)c2CNc2nccc(C(C)C)n2)ccc1O[C@H]1CCC[C@H](C(=O)O)C1 [Example 8] | 10 nM
13 | Cc1nc(-c2nnn(C)c2CNc2nccc(C3CC3)n2)ccc1O[C@H]1CCC[C@H](C(=O)O)C1 [Example 9] | 36 nM
14 | Cc1nc(-c2nnn(C)c2CNc2nccc(C3CCC3)n2)ccc1O[C@H]1CCC[C@H](C(=O)O)C1 [Example 10] | 11 nM
15 | Cc1nc(-c2nnn(C)c2CNc2nccc(Cc3ccccc3)n2)ccc1O[C@H]1CCC[C@H](C(=O)O)C1 [Example 11] | 103 nM
16 | COc1ccnc(NCc2c(-c3ccc(O[C@H]4CCC[C@H](C(=O)O)C4)c(C)n3)nnn2C)n1 [Example 12] | 56 nM
17 | CCOc1ccnc(NCc2c(-c3ccc(O[C@H]4CCC[C@H](C(=O)O)C4)c(C)n3)nnn2C)n1 [Example 13] | 19 nM
18 | Cc1nc(-c2nnn(C)c2CNc2nccc(OC(C)C)n2)ccc1O[C@H]1CCC[C@H](C(=O)O)C1 [Example 14] | 46 nM
19 | Cc1nc(-c2nnn(C)c2CNc2nccc(Oc3ccccc3)n2)ccc1O[C@H]1CCC[C@H](C(=O)O)C1 [Example 15] | 8 nM
20 | Cc1cc(OC(C)C)nc(NCc2c(-c3ccc(O[C@H]4CCC[C@H](C(=O)O)C4)c(C)n3)nnn2C)n1 [Example 16] | 29 nM
21 | Cc1nc(-c2nnn(C)c2CNc2nccc(N3CCCC3)n2)ccc1O[C@H]1CCC[C@H](C(=O)O)C1 [Example 17] | 206 nM
22 | Cc1nc(-c2nnn(C)c2CNc2nccc(C(F)(F)F)n2)ccc1O[C@H]1CCC[C@H](C(=O)O)C1 [Example 18] | 66 nM
23 | Cc1cnc(NCc2c(-c3ccc(O[C@H]4CCC[C@H](C(=O)O)C4)c(C)n3)nnn2C)nc1-c1ccccc1 [Example 19] | 8 nM
24 | Cc1nc(-c2nnn(C)c2CNc2nccc(-c3ccccc3F)n2)ccc1O[C@H]1CCC[C@H](C(=O)O)C1 [Example 20] | 16 nM
25 | Cc1nc(-c2nnn(C)c2CNc2nccc(-c3ccccn3)n2)ccc1O[C@H]1CCC[C@H](C(=O)O)C1 [Example 21] | 101 nM

Row | Structure (SMILES) | IC50
26 | COc1ccccc1-c1ccnc(NCc2c(-c3ccc(O[C@H]4CCC[C@H](C(=O)O)C4)c(C)n3)nnn2C)n1 [Example 22] | 219 nM
27 | Cc1nc(-c2nnn(C)c2CNc2cc(C(C)(C)C)ncn2)ccc1O[C@H]1CCC[C@H](C(=O)O)C1 [Example 23] | 1050 nM
28 | COc1cc(NCc2c(-c3ccc(O[C@H]4CCC[C@H](C(=O)O)C4)c(C)n3)nnn2C)ncn1 [Example 24] | 218 nM
29 | Cc1nc(-c2nnn(C)c2CNc2ccnc(OC(C)C)n2)ccc1O[C@H]1CCC[C@H](C(=O)O)C1 [Example 25] | 145 nM
30 | Cn1nnc(-c2ccc(O[C@H]3CCC[C@H](C(=O)O)C3)cn2)c1CNc1nccc(-c2ccccc2)n1 [Example 26] | 8 nM
31 | Cn1nnc(-c2cnc(O[C@H]3CCC[C@H](C(=O)O)C3)cn2)c1CNc1nccc(-c2ccccc2)n1 [Example 27] | 26 nM
32 | Cn1nnc(-c2ccc(O[C@H]3CCC[C@H](C(=O)O)C3)cn2)c1CNc1nccc(-c2ccccc2F)n1 [Example 28] | 19 nM
33 | Cn1nnc(-c2ccc(O[C@H]3CCC[C@H](C(=O)O)C3)cn2)c1CNc1nccc(-c2ccccn2)n1 [Example 29] | 39 nM
34 | Cc1cnc(NCc2c(-c3ccc(O[C@H]4CCC[C@H](C(=O)O)C4)cn3)nnn2C)nc1-c1ccccn1 [Example 30] | 300 nM
35 | Cn1nnc(-c2ccc(O[C@H]3CCC[C@H](C(=O)O)C3)cn2)c1CNc1nccc(Oc2ccccc2)n1 [Example 31] | 178 nM
36 | Cn1nnc(-c2ccc(O[C@H]3CCC[C@H](C(=O)O)C3)cn2)c1CNc1nccc(-c2cccnc2)n1 [Example 32] | 277 nM
37 | Cn1nnc(-c2ccc(O[C@H]3CCC[C@H](C(=O)O)C3)cn2)c1CNc1nccc(-n2cccn2)n1 [Example 34] | 1130 nM
38 | CC(C)c1ccnc(NCc2c(-c3ccc(O[C@H]4CCC[C@H](C(=O)O)C4)cn3)nnn2C)n1 [Example 35] | 28 nM
39 | COc1ccccc1-c1ccnc(NCc2c(-c3ccc(O[C@H]4CCC[C@H](C(=O)O)C4)cn3)nnn2C)n1 [Example 36] | 59 nM
40 | Cc1cc(-c2ccccn2)nc(NCc2c(-c3ccc(O[C@H]4CCC[C@H](C(=O)O)C4)cn3)nnn2C)n1 [Example 37] | 166 nM
41 | Cn1nnc(-c2ccc(O[C@H]3CCC[C@H](C(=O)O)C3)cn2)c1CNc1nccc(C(C)(C)C)n1 [Example 38] | 36 nM
42 | Cc1nc(-c2nnn(C)c2CNc2nccc(-c3ccccc3)n2)ccc1O[C@H]1CCC[C@H](C(=O)O)C1 [Example 39] | 41 nM
43 | CCc1ccnc(NCc2c(-c3ccc(O[C@H]4CCC[C@H](C(=O)O)C4)c(C)n3)nnn2C)n1 [Example 40] | 46 nM
44 | Cc1nc(-c2nnn(C)c2CNc2ncc(F)c(NCC(F)(F)F)n2)ccc1O[C@H]1CCC[C@H](C(=O)O)C1 [Example 41] | 208 nM
45 | Cc1nc(-c2nnn(C)c2CNc2ncc(F)c(N3CCC3)n2)ccc1O[C@H]1CCC[C@H](C(=O)O)C1 [Example 42] | 218 nM
46 | CCCN(C)c1nc(NCc2c(-c3ccc(O[C@H]4CCC[C@H](C(=O)O)C4)c(C)n3)nnn2C)ncc1F [Example 44] | 44 nM
47 | Cc1nc(-c2nnn(C)c2CNc2ncc(F)c(NC3CC3)n2)ccc1O[C@H]1CCC[C@H](C(=O)O)C1 [Example 45] | 109 nM
48 | CCCN(C)c1ccnc(NCc2c(-c3ccc(O[C@H]4CCC[C@H](C(=O)O)C4)c(C)n3)nnn2C)n1 [Example 46] | 304 nM
49 | Cc1nc(-c2nnn(C)c2CNc2ncc(F)c(NCC3CC3)n2)ccc1O[C@H]1CCC[C@H](C(=O)O)C1 [Example 47] | 69 nM
